Assay results published in patent US11524966B1 (Valo Early Discovery, Inc., priority 2017, dated 2022).

Target: T1, USP28 (His-tagged USP28-FL-mammalian) (Homo sapiens, UniProt Q96RU2)
T1 construct: Expression of USP28 (1-1077)-TEV-6*His (pTT5 vector); made in house; host or cells: Expi293f cells (pTT5 vector)
T1 sequence (Q96RU2 1-1077): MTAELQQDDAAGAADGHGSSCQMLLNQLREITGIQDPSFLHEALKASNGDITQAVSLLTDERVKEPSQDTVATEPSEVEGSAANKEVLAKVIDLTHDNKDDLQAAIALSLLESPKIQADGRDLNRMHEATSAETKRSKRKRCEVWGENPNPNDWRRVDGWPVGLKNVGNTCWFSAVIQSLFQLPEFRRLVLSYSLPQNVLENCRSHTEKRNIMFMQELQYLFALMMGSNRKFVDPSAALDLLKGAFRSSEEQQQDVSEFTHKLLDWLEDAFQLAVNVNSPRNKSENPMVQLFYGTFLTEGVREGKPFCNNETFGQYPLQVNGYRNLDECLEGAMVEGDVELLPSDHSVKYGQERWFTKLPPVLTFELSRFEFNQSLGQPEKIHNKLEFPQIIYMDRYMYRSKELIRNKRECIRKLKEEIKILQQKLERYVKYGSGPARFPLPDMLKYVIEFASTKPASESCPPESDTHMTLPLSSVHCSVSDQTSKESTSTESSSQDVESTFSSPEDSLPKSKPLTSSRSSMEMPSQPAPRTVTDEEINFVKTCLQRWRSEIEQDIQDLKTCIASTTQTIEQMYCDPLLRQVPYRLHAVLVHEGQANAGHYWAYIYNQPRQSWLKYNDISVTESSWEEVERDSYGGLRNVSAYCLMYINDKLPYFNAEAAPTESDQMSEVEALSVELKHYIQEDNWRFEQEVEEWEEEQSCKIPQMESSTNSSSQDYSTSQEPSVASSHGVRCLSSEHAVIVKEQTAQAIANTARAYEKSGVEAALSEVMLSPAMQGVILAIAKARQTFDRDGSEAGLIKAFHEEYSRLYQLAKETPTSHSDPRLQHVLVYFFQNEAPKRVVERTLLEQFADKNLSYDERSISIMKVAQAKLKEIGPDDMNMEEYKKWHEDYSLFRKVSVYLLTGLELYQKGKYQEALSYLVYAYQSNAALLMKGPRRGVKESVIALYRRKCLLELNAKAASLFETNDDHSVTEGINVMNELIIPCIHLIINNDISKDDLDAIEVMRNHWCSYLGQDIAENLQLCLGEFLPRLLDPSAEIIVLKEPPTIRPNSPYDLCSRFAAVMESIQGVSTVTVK
Assay: Ubiquitin-Rhodamine 110 Assay for USP28 Activity, Example A-1(a)
Format: biochemical
Details: Ubiquitin-Rhodamine 110 assay, Example A-1(a); read-out: USP28 A-1(a) IC50 range
Outline: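 Full-length His-tagged USP28 (1-1077, Expi293F-expressed; […]) was preincubated 30 min with compound (25 μM–1.3 nM, 10-point 3-fold) in 20 mM Tris-HCl pH 8.0, 3 mM BME, 0.03% BGG, 0.01% Triton X-100. Ub-Rh110 (25 nM) was then added for 45 min at room temperature, stopped with citric acid, and read by fluorescence (485/535 nm).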

Structure (SMILES) | IC50 [µM]
CCn1ccc2cc(C(=O)N[C@@H]3CCc4cc(N5C[C@H](OC)[C@@H](N)C5)cc(F)c4C3)nnc21 [Example 139, N-[(2R)-6-[(3S,4S)-3-amino-4-methoxypyrrolidin-1-yl]-8-fluoro-1,2,3,4-tetrahydronaphthalen-2-yl]-7-ethyl-7H-pyrrolo[2,3-c]pyridazine-3-carboxamide] | > 2
Cc1ccc2c(N)c(C(=O)N[C@H]3COc4cc(N5C[C@H](OC6CC6)[C@@H](N)C5)ccc4C3)sc2n1 [Example 140, 3-amino-N-[(3R)-7-[(3S,4S)-3-amino-4-cyclopropoxypyrrolidin-1-yl]-3,4-dihydro-2H-1-benzopyran-3-yl]-6-methylthieno[2,3-b]pyridine-2-carboxamide] | 0.001 to 0.05
Cc1ccc2c(N)c(C(=O)N[C@H]3COc4cc(N5C[C@H](OC6CCC6)[C@@H](N)C5)ccc4C3)sc2n1 [Example 141, 3-amino-N-[(3R)-7-[(3S,4S)-3-amino-4-cyclobutoxypyrrolidin-1-yl]-3,4-dihydro-2H-1-benzopyran-3-yl]-6-methylthieno[2,3-b]pyridine-2-carboxamide] | 0.001 to 0.05
CCO[C@H]1CN(c2ccc3c(n2)CC[C@H](NC(=O)c2sc4nc(C)ccc4c2N)C3)C[C@@H]1N [Example 142, 3-amino-N-[(6S)-2-[(3S,4S)-3-amino-4-ethoxypyrrolidin-1-yl]-5,6,7,8-tetrahydroquinolin-6-yl]-6-methylthieno[2,3-b]pyridine-2-carboxamide] | 0.2 to 2
CO[C@@H]1CN(c2ccc3c(c2)CC[C@H](NC(=O)c2sc4nc(C)ccc4c2N)C3)C[C@@H]1N [Example 143, 3-amino-N-[(2S)-6-[(3S,4R)-3-amino-4-methoxypyrrolidin-1-yl]-1,2,3,4-tetrahydronaphthalen-2-yl]-6-methylthieno[2,3-b]pyridine-2-carboxamide] | 0.001 to 0.05
CO[C@@H]1CN(c2cc(F)c3c(c2)OC[C@H](NC(=O)c2sc4nc(C)ccc4c2N)C3)C[C@@H]1N [Example 145, 3-amino-N-[(3R)-7-[(3S,4R)-3-amino-4-methoxypyrrolidin-1-yl]-5-fluoro-3,4-dihydro-2H-1-benzopyran-3-yl]-6-methylthieno[2,3-b]pyridine-2-carboxamide] | 0.001 to 0.05
CO[C@H]1CN(c2cc(F)c3c(c2)OC[C@H](NC(=O)c2sc4nc(C)ccc4c2N)C3)C[C@H]1N [Example 146] | 0.001 to 0.05
CO[C@H]1CN(c2ccc3c(c2)OC[C@H](NC(=O)c2sc4nc(C)cnc4c2N)C3)C[C@H]1N [Example 148, 7-amino-N-[(3R)-7-[(3R,4S)-3-amino-4-methoxypyrrolidin-1-yl]-3,4-dihydro-2H-1-benzopyran-3-yl]-3-methylthieno[2,3-b]pyrazine-6-carboxamide] | 0.001 to 0.05
CO[C@@H]1CN(c2ccc3c(c2)OC[C@H](NC(=O)c2sc4nc(C)sc4c2N)C3)C[C@@H]1N [Example 149, 6-amino-N-[(3R)-7-[(3S,4R)-3-amino-4-methoxypyrrolidin-1-yl]-3,4-dihydro-2H-1-benzopyran-3-yl]-2-methylthieno[2,3-d][1,3]thiazole-5-carboxamide] | 0.001 to 0.05
CO[C@H]1CN(c2ccc3c(c2)OC[C@H](NC(=O)c2sc4nc(C)sc4c2N)C3)C[C@H]1N [Example 150] | 0.05 to 0.2
CCO[C@@H]1CN(c2ccc3c(c2)OC[C@H](NC(=O)c2sc4nc(C)ccc4c2N)C3)C[C@@H]1N [Example 151, 3-amino-N-[(3R)-7-[(3S,4R)-3-amino-4-ethoxypyrrolidin-1-yl]-3,4-dihydro-2H-1-benzopyran-3-yl]-6-methylthieno[2,3-b]pyridine-2-carboxamide] | 0.001 to 0.05
CCO[C@H]1CN(c2ccc3c(c2)OC[C@H](NC(=O)c2sc4nc(C)ccc4c2N)C3)C[C@H]1N [Example 152] | 0.001 to 0.05
Cc1ccc2c(N)c(C(=O)N[C@H]3COc4cc(N5C[C@@H]6NCCO[C@@H]6C5)ccc4C3)sc2n1 [Example 153, N-[(3R)-7-[(4aS,7aR)-octahydropyrrolo[3,4-b]morpholin-6-yl]-3,4-dihydro-2H-1-benzopyran-3-yl]-3-amino-6-methylthieno[2,3-b]pyridine-2-carboxamide] | 0.05 to 0.2
Cc1ccc2c(N)c(C(=O)N[C@H]3COc4cc(N5C[C@@H]6OCCN[C@@H]6C5)ccc4C3)sc2n1 [Example 154, N-[(3R)-7-[(4aR,7aS)-octahydropyrrolo[3,4-b]morpholin-6-yl]-3,4-dihydro-2H-1-benzopyran-3-yl]-3-amino-6-methylthieno[2,3-b]pyridine-2-carboxamide] | 0.05 to 0.2
COC[C@@H]1CNCCN1c1ccc2c(c1)OC[C@H](NC(=O)c1sc3nc(C)ccc3c1N)C2 [Example 155, 3-amino-N-[(3R)-7-[(2S)-2-(methoxymethyl)piperazin-1-yl]-3,4-dihydro-2H-1-benzopyran-3-yl]-6-methylthieno[2,3-b]pyridine-2-carboxamide] | 0.001 to 0.05
COC[C@H]1CNCCN1c1ccc2c(c1)OC[C@H](NC(=O)c1sc3nc(C)ccc3c1N)C2 [Example 156, 3-amino-N-[(3R)-7-[(21)-2-(methoxymethyl)piperazin-1-yl]-3,4-dihydro-2H-1-benzopyran-3-yl]-6-methylthieno[2,3-b]pyridine-2-carboxamide] | 0.05 to 0.2
COC[C@H]1CN(c2ccc3c(c2)OC[C@H](NC(=O)c2sc4nc(C)ccc4c2N)C3)CCN1 [Example 157, 3-amino-N-[(3R)-7-[(3R)-3-(methoxymethyl)piperazin-1-yl]-3,4-dihydro-2H-1-benzopyran-3-yl]-6-methylthieno[2,3-b]pyridine-2-carboxamide] | 0.001 to 0.05
COC[C@@H]1CN(c2ccc3c(c2)OC[C@H](NC(=O)c2sc4nc(C)ccc4c2N)C3)CCN1 [Example 158, 3-amino-N-[(3R)-7-[(3S)-3-(methoxymethyl)piperazin-1-yl]-3,4-dihydro-2H-1-benzopyran-3-yl]-6-methylthieno[2,3-b]pyridine-2-carboxamide] | 0.05 to 0.2
Cc1cc(C)c2c(N)c(C(=O)N[C@H]3COc4cc(N5CCNCC5)c(F)c(F)c4C3)sc2n1 [Example 159, 3-amino-N-[(3R)-5,6-difluoro-7-(piperazin-1-yl)-3,4-dihydro-2H-1-benzopyran-3-yl]-4,6-dimethylthieno[2,3-b]pyridine-2-carboxamide] | > 2
Cc1cc(C)c2c(N)c(C(=O)N[C@@H]3COc4cc(N5CCNCC5)c(F)c(F)c4C3)sc2n1 [Example 160, 3-amino-N-[(3S)-5,6-difluoro-7-(piperazin-1-yl)-3,4-dihydro-2H-1-benzopyran-3-yl]-4,6-dimethylthieno[2,3-b]pyridine-2-carboxamide] | 0.001 to 0.05
COC[C@@H]1CN(c2ccc3c(c2)OC[C@H](NC(=O)c2sc4nc(C)ccc4c2N)C3)C[C@@H]1N [Example 161, 3-amino-N-[(3R)-7-[(3R,4R)-3-amino-4(methoxymethyl)pyrrolidin-1-yl]-3,4-dihydro-2H-1-benzopyran-3-yl]-6-methylthieno[2,3-b]pyridine-2-carboxamide] | 0.001 to 0.05
COC[C@H]1CN(c2ccc3c(c2)OC[C@H](NC(=O)c2sc4nc(C)ccc4c2N)C3)C[C@H]1N [Example 162, 3-amino-N-[(3R)-7-[(3S,4S)-3-amino-4-(methoxymethyl)pyrrolidin-1-yl]-3,4-dihydro-2H-1-benzopyran-3-yl]-6-methylthieno[2,3-b]pyridine-2-carboxamide] | 0.001 to 0.05
COC[C@@H]1CN(c2ccc3c(c2)OC[C@H](NC(=O)c2sc4nc(C)ccc4c2N)C3)C[C@H]1N [Example 163, 3-amino-N-[(3R)-7-[(3S,4R)-3-amino-4-(methoxymethyl)pyrrolidin-1-yl]-3,4-dihydro-2H-1-benzopyran-3-yl]-6-methylthieno[2,3-b]pyridine-2-carboxamide] | 0.001 to 0.05
COC[C@H]1CN(c2ccc3c(c2)OC[C@H](NC(=O)c2sc4nc(C)ccc4c2N)C3)C[C@@H]1N [Example 164, 3-amino-N-[(3R)-7-[(3R,4S)-3-amino-4-(methoxymethyl)pyrrolidin-1-yl]-3,4-dihydro-2H-1-benzopyran-3-yl]-6-methylthieno[2,3-b]pyridine-2-carboxamide] | 0.001 to 0.05
